Test results reported in ChEMBL document CHEMBL1201862, “PubChem BioAssay data set” (2004).
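Dose response: 5 concentrations. Exposure: 48 h. Format: 96-well plates. Endpoint: linear interpolation; highest concentration if not reached. GI50: concentration for 50% inhibition of growth.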 The source made the active and inactive calls. Rule as the data show it: active = GI50 up to about 1.1 µM and inactive = higher.

Key:
Assay in all cases: inhibition of tumour cell growth, NCI panel, 48 h
[1] = system: 786-0
[2] = system: A498
[3] = system: A549
[4] = system: ACHN
[5] = system: BT-549
[6] = system: CAKI-1
[7] = system: COLO 205
[8] = system: DU-145
[9] = system: EKVX
[10] = system: HCC 2998
[11] = system: HCT-116
[12] = system: HCT-15
[13] = system: HL-60
[14] = system: HOP-62
[15] = system: HOP-92
[16] = system: HT-29
[17] = system: Hs-578T
[18] = system: IGROV-1
[19] = system: K562
[20] = system: KM12
[21] = system: LOX IMVI
[22] = system: M14
[23] = system: MCF7
[24] = system: MDA-MB-231
[25] = system: MDA-MB-435
[26] = system: MDA-N
[27] = system: MOLT-4
[28] = system: Malme-3M
[29] = system: NCI-H226
[30] = system: NCI-H23
[31] = system: NCI-H460
[32] = system: NCI-H522
[33] = system: NCI/ADR-RES
[34] = system: OVCAR-3
[35] = system: OVCAR-5
[36] = system: OVCAR-8
[37] = system: PC-3
[38] = system: RPMI-8226
[39] = system: RXF 393
[40] = system: SF-268
[41] = system: SF-295
[42] = system: SF-539
[43] = system: SK-MEL-28
[44] = system: SK-MEL-2
[45] = system: SK-MEL-5
[46] = system: SK-OV-3
[47] = system: SN12C
[48] = system: SNB-19
[49] = system: SNB-75
[50] = system: SR
[51] = system: SW-620
[52] = system: T47D
[53] = system: TK-10
[54] = system: U-251
[55] = system: UACC-257
[56] = system: UACC-62
[57] = system: UO-31
[58] = system: CCRF-CEM
[59] = system: OVCAR-4

`COc1cccc(OC)c1C1ON=C(c2ccccc2)N1C12CC3CC(CC(C3)C1)C2` (centres undefined) was tested, and the GI50 [1] was 42.1 µM (inactive), the GI50 [2] was > 100 µM (inactive) and the GI50 [3] was 64.3 µM (inactive). The GI50 [4] was 35.3 µM (inactive), the GI50 [5] was > 100 µM (inactive) and the GI50 [6] was > 100 µM (inactive). For the same compound, the GI50 [7] was > 100 µM (inactive), the GI50 [8] was > 100 µM (inactive) and the GI50 [9] was > 100 µM (inactive). For the same compound, the GI50 [10] was > 100 µM (inactive), the GI50 [11] was 51.2 µM (inactive) and the GI50 [12] was > 100 µM. The GI50 [13] was 1.87 µM (inactive), the GI50 [14] was 80.9 µM (inactive) and the GI50 [15] was 10.9 µM (inactive). For the same compound, the GI50 [16] was > 100 µM (inactive), the GI50 [17] was 57.7 µM (inactive) and the GI50 [18] was > 100 µM (inactive). For the same compound, the GI50 [19] was > 100 µM (inactive), the GI50 [20] was > 100 µM (inactive) and the GI50 [21] was > 100 µM (inactive). For the same compound, the GI50 [22] was 78 µM (inactive), the GI50 [23] was > 100 µM (inactive) and the GI50 [24] was > 100 µM (inactive). For the same compound, the GI50 [25] was > 100 µM (inactive), the GI50 [26] was > 100 µM (inactive) and the GI50 [27] was 84.5 µM (inactive). The GI50 [28] was 38.6 µM (inactive), the GI50 [29] was > 100 µM (inactive) and the GI50 [30] was > 100 µM (inactive). The GI50 [31] was > 100 µM (inactive), the GI50 [32] was 31 µM (inactive) and the GI50 [33] was > 100 µM (inactive). For the same compound, the GI50 [34] was > 100 µM (inactive), the GI50 [35] was 46.2 µM (inactive) and the GI50 [36] was > 100 µM (inactive). For the same compound, the GI50 [37] was 66.5 µM (inactive), the GI50 [38] was 4.41 µM (inactive) and the GI50 [39] was 1.2 µM (inactive). For the same compound, the GI50 [40] was > 100 µM (inactive), the GI50 [41] was > 100 µM (inactive) and the GI50 [42] was > 100 µM (inactive). For the same compound, the GI50 [43] was > 100 µM (inactive), the GI50 [44] was 64 µM (inactive) and the GI50 [45] was 27.3 µM (inactive). For the same compound, the GI50 [46] was 38.1 µM (inactive), the GI50 [47] was > 100 µM (inactive) and the GI50 [48] was 13.1 µM (inactive). For the same compound, the GI50 [49] was 20.7 µM (inactive), the GI50 [50] was 5.92 µM (inactive) and the GI50 [51] was > 100 µM (inactive). The GI50 [52] was 8.3 µM (inactive), the GI50 [53] was 36.6 µM (inactive) and the GI50 [54] was 30.1 µM (inactive). For the same compound, the GI50 [55] was > 100 µM (inactive), the GI50 [56] was > 100 µM (inactive) and the GI50 [57] was > 100 µM (inactive).
With `CCCCc1ccc(Nc2nc3c(ncn3C3OC(COC(C)=O)C(OC(C)=O)C3OC(C)=O)c(=O)[nH]2)cc1` (centres undefined) the GI50 [1] was 17.2 µM (inactive), the GI50 [2] was > 100 µM (inactive) and the GI50 [3] was 92.7 µM (inactive). For the same compound, the GI50 [4] was 65 µM (inactive), the GI50 [5] was 17.8 µM (inactive) and the GI50 [6] was > 100 µM (inactive). The GI50 [58] was 16.3 µM (inactive), the GI50 [7] was 17.6 µM (inactive) and the GI50 [8] was 31.3 µM (inactive). The GI50 [9] was 36.7 µM (inactive), the GI50 [10] was 20.7 µM (inactive) and the GI50 [11] was 17.1 µM (inactive). For the same compound, the GI50 [12] was > 100 µM, the GI50 [13] was 26.2 µM (inactive) and the GI50 [14] was 17.8 µM (inactive). The GI50 [15] was 16.1 µM (inactive), the GI50 [16] was 19.1 µM (inactive) and the GI50 [17] was 22.9 µM (inactive). The GI50 [18] was 17.5 µM (inactive), the GI50 [19] was 15.1 µM (inactive) and the GI50 [20] was 18.4 µM (inactive). For the same compound, the GI50 [21] was 18.5 µM (inactive), the GI50 [22] was 20.6 µM (inactive) and the GI50 [23] was 23 µM (inactive). The GI50 [24] was 16.7 µM (inactive), the GI50 [25] was 19.9 µM (inactive) and the GI50 [26] was 19.5 µM (inactive). The GI50 [27] was 18.7 µM (inactive), the GI50 [28] was 19.4 µM (inactive) and the GI50 [29] was 21.1 µM (inactive). The GI50 [30] was 17.4 µM (inactive), the GI50 [31] was 18.3 µM (inactive) and the GI50 [32] was 18 µM (inactive). For the same compound, the GI50 [33] was > 100 µM (inactive), the GI50 [34] was 15.3 µM (inactive) and the GI50 [59] was 21.9 µM (inactive). For the same compound, the GI50 [35] was 79.6 µM (inactive), the GI50 [36] was 18.4 µM (inactive) and the GI50 [37] was 19.7 µM (inactive). For the same compound, the GI50 [38] was 20.4 µM (inactive), the GI50 [39] was 19.1 µM (inactive) and the GI50 [40] was 19.4 µM (inactive). For the same compound, the GI50 [41] was 21.2 µM (inactive), the GI50 [42] was 26.2 µM (inactive) and the GI50 [44] was 15.7 µM (inactive). The GI50 [45] was 17.4 µM (inactive), the GI50 [46] was 27 µM (inactive) and the GI50 [47] was 24.2 µM (inactive). The GI50 [48] was 27.7 µM (inactive), the GI50 [50] was 13.5 µM (inactive) and the GI50 [51] was 25.1 µM (inactive). The GI50 [52] was 13.7 µM (inactive), the GI50 [53] was 45.3 µM (inactive) and the GI50 [54] was 21 µM (inactive). The GI50 [55] was 18.9 µM (inactive), the GI50 [56] was 19 µM (inactive) and the GI50 [57] was > 100 µM (inactive).
In the case of `CC1=NN(C(=O)CC(=O)Nc2ccc(C)cc2)C(=O)C1/N=N/c1ccc(C(=O)O)cc1` (centres undefined), the GI50 [1] is reported as > 100 µM (inactive), the GI50 [2] is reported as > 100 µM (inactive) and the GI50 [3] is reported as > 100 µM (inactive). The GI50 [4] was > 100 µM (inactive), the GI50 [5] was > 100 µM (inactive) and the GI50 [6] was > 100 µM (inactive). The GI50 [58] was > 100 µM (inactive), the GI50 [7] was > 100 µM (inactive) and the GI50 [8] was > 100 µM (inactive). For the same compound, the GI50 [9] was > 100 µM (inactive), the GI50 [10] was > 100 µM (inactive) and the GI50 [11] was > 100 µM (inactive). For the same compound, the GI50 [12] was > 100 µM, the GI50 [13] was > 100 µM (inactive) and the GI50 [14] was > 100 µM (inactive). For the same compound, the GI50 [15] was > 100 µM (inactive), the GI50 [16] was > 100 µM (inactive) and the GI50 [17] was 85.7 µM (inactive). The GI50 [18] was > 100 µM (inactive), the GI50 [19] was > 100 µM (inactive) and the GI50 [20] was > 100 µM (inactive). For the same compound, the GI50 [21] was 69.3 µM (inactive), the GI50 [22] was > 100 µM (inactive) and the GI50 [23] was > 100 µM (inactive). For the same compound, the GI50 [24] was > 100 µM (inactive), the GI50 [25] was > 100 µM (inactive) and the GI50 [26] was > 100 µM (inactive). The GI50 [28] was > 100 µM (inactive), the GI50 [30] was > 100 µM (inactive) and the GI50 [32] was > 100 µM (inactive). The GI50 [33] was > 100 µM (inactive), the GI50 [34] was > 100 µM (inactive) and the GI50 [59] was > 100 µM (inactive). For the same compound, the GI50 [35] was > 100 µM (inactive), the GI50 [36] was > 100 µM (inactive) and the GI50 [37] was > 100 µM (inactive). For the same compound, the GI50 [38] was > 100 µM (inactive), the GI50 [39] was > 100 µM (inactive) and the GI50 [40] was > 100 µM (inactive). The GI50 [41] was > 100 µM (inactive), the GI50 [42] was > 100 µM (inactive) and the GI50 [43] was > 100 µM (inactive). For the same compound, the GI50 [44] was > 100 µM (inactive), the GI50 [45] was > 100 µM (inactive) and the GI50 [47] was > 100 µM (inactive). For the same compound, the GI50 [48] was > 100 µM (inactive), the GI50 [49] was > 100 µM (inactive) and the GI50 [50] was 78.5 µM (inactive). The GI50 [51] was > 100 µM (inactive), the GI50 [52] was > 100 µM (inactive) and the GI50 [53] was > 100 µM (inactive). The GI50 [54] was > 100 µM (inactive), the GI50 [55] was > 100 µM (inactive) and the GI50 [56] was > 100 µM (inactive). For the same compound, the GI50 [57] was 55.8 µM (inactive).
